Data taken from US7816522B2, “Triazolone derivatives” (Eisai Co., Ltd., priority 2006, dated 2010).

target: T1, human clotting factor VIIa (Homo sapiens, UniProt P08709); experiment: Inhibitory activity against clotting factor VIIa (chromogenic substrate Spectrozyme FVIIa, TF/Factor VIIa enzyme solution); type: biochemical; settings: human Factor VIIa 5 nmol/L with human TF 10 nmol/L, room temperature 40 minutes, 405 nm
T1 construct: a human clotting factor VIIa (hereinafter, “Factor VIIa”) purified sample; purchased Enzyme Research Laboratories HFVIIa
Procedure, shortened: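 Human Factor VIIa (5 nmol/L) with human TF (10 nmol/L) in Tris-BSA buffer pH 7.4 containing 15 mmol/L CaCl2 and cephalin, with Spectrozyme FVIIa substrate. Reaction 40 min at room temperature; 4-nitroanilide read at 405 nm. IC50 by non-linear regression over 100 μmol/L–0.1 nmol/L.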

T1 sequence (P08709 213-466 limits assumed): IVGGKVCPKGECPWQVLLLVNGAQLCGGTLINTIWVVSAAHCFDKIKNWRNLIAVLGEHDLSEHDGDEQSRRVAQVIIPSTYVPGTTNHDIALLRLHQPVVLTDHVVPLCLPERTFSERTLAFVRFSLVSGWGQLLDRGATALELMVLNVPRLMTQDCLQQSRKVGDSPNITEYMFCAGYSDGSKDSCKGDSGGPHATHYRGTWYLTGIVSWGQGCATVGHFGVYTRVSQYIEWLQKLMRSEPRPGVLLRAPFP
T1 sequence (P08709 61-212 limits assumed): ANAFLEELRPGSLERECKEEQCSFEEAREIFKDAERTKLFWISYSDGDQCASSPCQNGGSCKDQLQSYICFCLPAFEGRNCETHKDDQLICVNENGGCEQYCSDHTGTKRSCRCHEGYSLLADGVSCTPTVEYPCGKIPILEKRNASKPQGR
T1 sequence (P13726 33-295 partner): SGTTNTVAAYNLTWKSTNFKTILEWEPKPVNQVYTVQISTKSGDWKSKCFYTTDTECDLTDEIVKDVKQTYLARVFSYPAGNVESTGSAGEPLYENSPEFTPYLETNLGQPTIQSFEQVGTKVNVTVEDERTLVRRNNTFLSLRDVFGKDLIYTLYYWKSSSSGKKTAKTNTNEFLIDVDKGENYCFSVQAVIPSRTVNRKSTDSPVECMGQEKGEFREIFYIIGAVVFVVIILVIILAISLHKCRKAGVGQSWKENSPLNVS

| IC50 [nM] | Structure (SMILES) |
| --- | --- |
| 18.6 | COc1cc(C(Nc2ccc(C(=N)N)cc2)c2nn(-c3ncccn3)c(=O)[nH]2)ccc1OCCF (racemic) [Example 81, (R) and (S)-4-({[4-(2-fluoroethoxy)-3-methoxyphenyl]-(5-oxo-1-pyrimidin-2-yl-4,5-dihydro-1H-[1,2,4]triazol-3-yl)methyl}amino)benzamidine acetate] |
| 5.3 | COc1cc(OCCF)c(F)c(C(Nc2ccc(C(=N)N)cc2)c2nn(-c3cnccn3)c(=O)[nH]2)c1 (racemic) [Example 100, 4-{[(R) and (S)-[2-fluoro-3-(2-fluoroethoxy)-5-methoxyphenyl]-(5-oxo-1-pyrazin-2-yl-4,5-dihydro-1H-[1,2,4]triazol-3-yl)methyl]amino}benzamidine acetate] |
| 8.8 | CCc1cc(OCC#N)cc(C(Nc2ccc(C(=N)N)cc2)c2nn(-c3ncccn3)c(=O)[nH]2)c1 (stereo not shown) [Example 77, 4-{[(3-cyanomethoxy-5-ethylphenyl)-(5-oxo-1-pyrimidin-2-yl-4,5-dihydro-1H-[1,2,4]triazol-3-yl)methyl]amino}benzamidine acetate] |
| 4.7 | CCc1cc(OCC(C)(C)CN(C)C)c(F)c(C(Nc2ccc(C(=N)N)cc2)c2nn(-c3ccccc3C(=O)O)c(=O)[nH]2)c1 (stereo not shown) [Example 142, 2-(3{(4-carbamimidoyl-phenylamino)-[3-(3-dimethylamino-2,2-dimethylpropoxy)-5-ethyl-2-fluorophenyl]methyl}-5-oxo-4,5-dihydro-1H-[1,2,4]triazol-1-yl}benzoic acid bistrifluoroacetate] |
